The structures appear in SMILES notation.

Broadly, the melting point is the temperature, or range, at which the solid turns liquid. With `CC(=O)NC[C@H]1CN(c2ccc(C(=O)c3cnc4nc(C)cc(C)n34)cc2)C(=O)O1`, the melting point lay within 253 to 254 °C.
Turning to `O=C(O)C#Cc1ccc(-c2ccc(Cl)cc2)cn1`, the melting point is 210 °C.
The same measure for `Cc1cc(C)c2c(c1C)OCC2c1ccccc1` (centres undefined): 72 to 73 °C; for `Cc1nnc(Cl)c(-c2c(F)cc(F)cc2F)c1-c1ccc2ccccc2c1`: 86 to 89 °C.
On to `CC(=O)Cc1cccc2c1C(=O)c1ccccc1C2=O`, for which the melting point lay within 198 to 200 °C.
`COc1ccccc1S(=O)(=O)OC(Cl)C(=O)c1ccccc1` (centres undefined): the melting point is 83 °C.
On to `CN(C(=O)c1cc2ccccc2s1)c1ccc(N2CCC(O)CC2)c(C#N)c1`, for which the melting point is 211 to 212 °C.
As for `CCCCC(=O)N(Cc1ccc(-c2ccccc2-c2nnn[nH]2)cc1)C(C(=O)OCc1ccccc1)C(C)C` (centres undefined), the figure is 106 to 108 °C; as for `CCOC(=O)NC(C)CCC1(O)c2ccccc2CCc2c(C)cccc21` (centres undefined), 132 to 134 °C; as for `CN(C)CCC(Oc1ccc(NS(C)(=O)=O)cc1)c1ccccc1` (centres undefined), 145 to 147 °C.
Molecule `COc1c(Cl)cc2c(=O)[nH]c(=O)[nH]c2c1OC` returned a melting point of 272 to 273 °C.
The molecule `CC1Cc2cc(F)ccc2C1=Cc1ccc(S(C)(=O)=O)cc1` (centres undefined) gave a melting point of 177 °C.
In the case of `NC(=O)CNCc1noc([C@H](CCCC2CCCCC2)CC(=O)NO)n1`, the melting point lay in the range of 60 to 70 °C.
The molecule `Cn1c(=O)[nH]c(=O)n(-c2ccc(Sc3nc4ccc(Cl)cc4s3)cc2)c1=O` yielded a melting point of 232 to 233 °C.
As for `CCCCN(CCCC)CCCOc1ccc(C(=O)c2c(-c3ccccc3)cc3ccccn23)cc1`, the figure is 92 to 93.5 °C.
`N#Cc1c2c(c3c(c1N1CCCCC1)Cc1ccccc1-3)Cc1ccccc1-2` displayed a melting point of 186 to 188 °C.
As for `CC(C)(C)C(=O)OCCN1CCN(c2nc(N)ncc2Oc2ccc(Cl)cc2)CC1`, the figure is 123 to 125 °C.
As for `CC(=O)NNC(=O)Nc1ccccc1-c1ccc(C)cc1`, the figure is 102 to 104 °C; as for `COC(=O)c1ccc(O)c(C(=O)CC(=O)c2ccccc2OCc2ccccc2)c1`, 95 to 97 °C.
The same measure for `C#CC1(O)C(CO)OC(n2ccc(N)nc2=O)C1O` (centres undefined): 233 to 235 °C; for `CC(=O)C(=Cc1cccc([N+](=O)[O-])c1)C(=O)OC(C)(C)CN(C)CCC(c1ccccc1)c1ccccc1`: 65 to 80 °C; for `Cc1c(C(=O)O)cnn1-c1nc(-c2cc(C(F)(F)F)cc(C(F)(F)F)c2)cs1`: 261 °C.
Molecule `CN(Cc1ccc(C2=NCCN2)cc1)C(=O)OCc1ccccc1` returned a melting point of 84 °C.
The same measure for `c1ccc(C2CN=C3NCCN32)cc1` (centres undefined): 167 to 170 °C; for `CCOc1ccc2[nH]c(C)cc2c1`: 76 to 77 °C.
The same measure for `Cc1ccc([N+](=O)[O-])c(NC=C2C(=O)OC(C)(C)OC2=O)c1`: 218 to 220 °C; for `Oc1ccc(Nc2ncc3ncc(-c4cccc(O)c4)cc3n2)cc1`: more than 268 °C.
As for `Cc1nnc(Cl)c(-c2c(F)cc(F)cc2F)c1-c1ccc(Cl)nc1`, the figure is 182 to 183 °C; as for `ClCc1nc(-c2ccccc2)c(-c2ccccc2)o1`, 43 to 45 °C.
`CCOn1c(OC)n[nH]c1=O` came in with a melting point of 57 °C.
The same measure for `Cc1c(C)c2c(c(C)c1NCc1ccccc1)C(c1ccc(-c3ccccc3)cc1)CO2` (centres undefined): 77 to 78 °C; for `N#Cc1cc(F)cc(-c2cc(N)c3c(c2)C2(CCCCC2)C(=O)N3)c1`: 241 to 243 °C.
As for `CC(C)(C)C(=O)Nc1ccc2cc3c(cc2c1)CCCC3`, the figure is 202 to 204 °C; as for `COc1cc2ncnc(Nc3cccc(Br)c3)c2cc1O`, 299 °C; as for `CN1CCc2c(sc3c2C(=O)N(CCCl)CN3)C1`, 159 to 161 °C.
The same measure for `Oc1c(Cc2ccccc2)ccc2[nH]ccc12`: 104 to 106 °C; for `O=C(O)COc1ccc(C(=O)c2ccccc2F)c(Cl)c1Cl`: 153 to 156 °C.
On to `CCOC(=O)n1cc(C#N)c(-c2ccc(F)c(Cl)c2F)c1`, for which the melting point came to 132 °C.
The molecule `CN1CCN(c2c(F)c(F)c([N+](=O)[O-])c(F)c2F)CC1` had a melting point of 77 to 78 °C.
In turn, `CN(CCc1ccc(Nc2ncc3c(n2)-c2ccccc2[C@H](c2ccc(F)cc2)C3)cc1)C1CCCCC1` came in with a melting point of 160 to 162 °C.
The same measure for `COC(=O)c1ccc2cc(CCCCc3cc4ccc(C(=O)OC)cc4o3)oc2c1`: 130 to 131 °C.
With `Cc1nc2nccc(O)c2cc1Br`, the melting point was more than 250 °C.
The same measure for `CCCC(C)(C)C(O)C(c1cccc(Cl)c1)n1cnc(C)c1` (centres undefined): 121 to 122 °C.
`O=C1c2cc(CCCCOC(=O)C(F)(F)F)ccc2OCc2sccc21` showed a melting point of 65.5 to 67.5 °C.
As for `CCCN1CCCC1CNC(=O)c1cc(S(N)(=O)=O)cc2c1OC(C)C2` (centres undefined), the figure is 177 to 180 °C; as for `O=C1c2ccccc2C(=O)N1CC(=O)N1Cc2ccccc2Oc2ccc(Cl)cc21`, 184 to 185 °C; as for `COc1ccc(C(=O)Nc2c(Cl)cncc2Cl)c2c1OCCCCO2`, 115 to 117 °C.
The molecule `Oc1ccc2nc(Cc3ccc(Cl)cc3)oc2c1` displayed a melting point of 167 to 168 °C.
`CS(=O)(=O)NCCCCn1c(CCO)nc2c(N)nc3cccnc3c21` displayed a melting point of 194 to 195 °C.
`N#CC1=C(c2ccsc2)Nc2n[nH]cc2C1c1cccc2nonc12` (centres undefined) had a melting point of 242 °C.
`CCC1=C(C#N)C(c2ccccc2Cl)c2c[nH]nc2N1` (centres undefined) returned a melting point of more than 300 °C.
In the case of `CC(C)c1cccc(CO)c1NC(=O)CC1c2ccccc2Oc2ccccc21`, the melting point is 155 to 156 °C.
As for `CC1CC(=O)NN=C1c1ccc(N2CCNCC2)c(F)c1` (centres undefined), the figure is 172 to 174 °C; as for `CC(C)(C)C(Cc1ccccc1)C(=O)n1ccnc1` (centres undefined), 90 to 91 °C.
The same measure for `CCCNC(=O)C(Cc1ccc2c(c1)c(Cc1ccc(C(=O)O)cc1OC)cn2CCC)C(C)C` (centres undefined): 160 to 162 °C; for `COc1cccc(-c2cc(S(=O)(=O)c3ccc(N)cc3)cc(N3CCCC3)n2)c1`: 214 to 215 °C; for `COc1ccc(C(=O)c2cc(C(=O)c3ccc(OC)cc3)cc(C(=O)c3ccc(OC)cc3)c2)cc1`: 179 to 183 °C.
Molecule `CCOC(=O)C1Cc2ccccc2N1C(=O)c1c(O)c2cc(OC)cc3c2n(c1=O)CCO3` (centres undefined) returned a melting point of 135 to 138 °C.
The same measure for `CC1(C)C(=O)Oc2ccc3cc([N+](=O)[O-])c(Cn4cncn4)cc3c21`: 183 to 185 °C; for `CC1Cc2ccc(Br)cc2C(c2ccc([N+](=O)[O-])cc2)=NN1C(N)=O` (centres undefined): 193 to 203 °C.
Regarding `OC1CCCc2ccc(OCc3ccc4ccccc4n3)cc21` (centres undefined), the melting point fell in the range of 113 to 115 °C.
The same measure for `O=C(Nc1ccc2c(c1)CCSCC2)OCc1ccccc1`: 118 to 120 °C; for `CSc1nc(Cl)cc(N(C)C)n1`: 102 °C.
In the case of `Cc1cc(OCC(=O)Nc2cccc(C(=O)O)c2)ccc1C(C)C`, the melting point lay in the range of 188 to 189 °C.
The same measure for `Nc1nc(Nc2ccc(SC3(Cl)C=CC(C(F)(F)F)=CN3)cc2)sc1C(=O)c1c(Cl)cc(C(F)(F)F)cc1Cl` (centres undefined): 130 to 132 °C; for `O=C(O)Cc1ccc(OCc2ccccc2)c(C(=O)O)c1`: 143 to 145 °C; for `CCOCCn1c(NC2CCN(C(=O)c3ccccc3N)C(Cc3ccccc3)C2)nc2ccccc21` (centres undefined): 197 °C.
As for `O=C(O)c1cc(Br)ccc1COc1ccc(Br)cc1`, the figure is 214 to 215 °C; as for `Cc1ccc(NC(=O)C(C)(C)C)c(-c2cncc(Cl)n2)c1`, 80 to 83 °C; as for `CCCOc1ccnc2[nH]cc(C(C)=O)c12`, more than 210 °C.
Molecule `O=C(Cn1ncc(-c2ccccc2)c1-c1ccccc1)NCCCN1CCCC1` returned a melting point of 75 to 79 °C.
The same measure for `C=CC(CC(O)C(CC1CCCCC1)NC(=O)C(Cc1c[nH]cn1)NC(=O)C(Cc1ccccc1)NC(=O)OC(C)(C)C)C(C)C` (centres undefined): 161 °C.
In turn, `CCN1CCN(c2cc3c(cc2F)c(=O)c(C(=O)O)c2n3C(C)S2)CC1` (centres undefined) gave a melting point of 211 to 214 °C.
For the molecule `CCc1cc(C(O)(CC)CC)ccc1-c1cc(OCc2ccc(CO)c(CO)c2)ccc1CC`, the melting point was found to be 93 °C.
As for `COc1ccc(CCCCOCc2cccc(/C=C/c3cccc(NC(=O)CCC(C)(C)C(=O)O)c3)n2)cc1`, the figure is 141 to 142 °C; as for `CCCCN(CCCC)c1cc(OC)c(C=O)c(OC)c1`, 55 to 56 °C.
`O=C(c1ccccc1)N1CCC2OC2C1` (centres undefined): the melting point lay in the range of 212 to 213 °C.
For `Cc1cc(OCc2oc(-c3ccc(C(F)(F)F)cc3)nc2C)ccc1CCC(=O)O`, the melting point is 113 to 115 °C.
The same measure for `CCN1C(=O)C(=CC=C2C=C3c4ccccc4CCN3C3=C2CCCC3)C(=O)N(CC)C1=S`: 320 °C.
With `O=C(Cc1cccc(O)c1)c1cccc(O)c1`, the melting point was 151 to 154 °C.
`Cc1c(C)c(N2CCN(c3ccc(Br)cc3)CC2)c(C)c2c1OC(C)C2` (centres undefined): the melting point lay within 202 to 204 °C.
The same measure for `C[Si](C)(C)C=Cc1cn(C2OC(CO)C(O)C2F)c(=O)[nH]c1=O` (centres undefined): 164 to 165 °C.
As for `CCOC(=O)ONC(=N)COc1cc(OCC(=N)NOC(=O)OCC)c2c(C)c(Cc3ccccc3)c(=O)oc2c1`, the figure is 87 to 92 °C; as for `CCc1[nH]c(=O)[nH]c1C(=O)c1cccnc1`, 219 to 221 °C.
As for `O=C(NCc1cccnc1)c1ccnc(N2CCN(CC3CC3)C2=O)c1`, the figure is 122 to 123 °C; as for `COCCN(CCOC)C(=O)c1cccc(NC(=O)Oc2ccccc2)c1`, 116 to 118 °C; as for `O=C(CCCCC1CCSS1)NO` (centres undefined), 63 to 64 °C.
Regarding `CC(NC(=O)C(CS)C(C)c1ccc(O)cc1)C(=O)O` (centres undefined), the melting point came to 72 °C.
In turn, `CC#CCOc1ccc(S(=O)(=O)C(C(=O)NO)c2ccc(OC)cc2)cc1` (centres undefined) came in with a melting point of 190 °C.

For the origin of these results see a melting point compilation (Tetko et al.; mined from patent text by program, amines drawn as free bases though some values may be those of a salt).
